Measurements taken from patent publication US6609014B1, “Use of PDT to inhibit intimal hyperplasia” (QLT Inc., priority 1999, dated 2003).
Several values for one entry are separate records, joined by “and”; a condition that tells them apart may be missing. Identical values can stand only once.

System: intimal hyperplasia in the vein of AV fistulae between the carotid artery and internal jugular vein
Assay: One-month dose optimization: PDT of bilateral end-to-side AV fistulae, morphometric analysis of vein cross-sections
Assay type: in vivo, Domestic swine
Parameters: key to PDT-treated fistula thrombosed (T) / PDT-treated fistula thrombosed: T = thrombosed
Settings: for Percent Lumen Compromised by Intimal Hyperplasia, PDT, Block #1 / Percent Lumen Compromised by Intimal Hyperplasia, PDT, Block #2 / Percent Lumen Compromised by Intimal Hyperplasia, Control-PDT, Block #1, Mean / Percent Lumen Compromised by Intimal Hyperplasia, Control-PDT, Block #2, Mean / Percent Lumen Compromised by Intimal Hyperplasia, PDT, Block #2, Mean / Percent Lumen Compromised by Intimal Hyperplasia, PDT, Block #1, Mean / PDT-treated fistula thrombosed (T) / Percent Lumen Compromised by Intimal Hyperplasia, Control-PDT, Block #1 / Percent Lumen Compromised by Intimal Hyperplasia, Control-PDT, Block #2: 40 min OR lamp light
Source text: Domestic swine (male, 40-50 kg) were used for experiments related to the present invention. Extensive research has been performed to characterize the changes leading to intimal hyperplasia (IH) in the arteries and veins of swine, which closely resemble those in humans (22). AV fistulae were created in several pigs to confirm that measurable IH developed in the vein, just distal to the anastomoses, within one month (FIG. 1A).
Pigs were recovered and left for four weeks at which time they were exsanguinated and perfused with 10% formalin. The fistulae were surgically excised for processing and wax embedding for histology (FIGS. 1A and 2). Wax blocks containing the fistulae were cut to provide sections containing a cross-section of the anastomoses, including the artery and vein distal to the sutures (FIGS. 1A, 1B, and 3).
A porous balloon catheter was introduced into the lumen of veins to deliver either 2 mL of BPD-MA (diluted in 5% dextrose in water) or 5% dextrose in water (control), at a delivery pressure of 2 mm Hg. Two minutes later, the photosensitizer (or dextrose) was rinsed out with heparinized saline before light exposure.
The adventitia of the vein was exposed to the operating room (OR) lamp light for 40 minutes (a combination of incandescent bulbs and fluorescence tubes—approximately 1 J/cm^2).
Measurements and observations were made by morphometric analysis of cross-sections of fistulae stained with Verhoeff's elastic to assess the integrity of the vessel wall and also clearly demarcate the internal elastic lamina (IEL) for the measurement of IH. Areas within the lumen and those circumscribed by the internal elastic lamina (IEL) and the external elastic lamina (EEL) were measured directly using the Optimas (Optimas Corporation, Bothell, Wash., USA) program. The areas of the intima and the media were calculated by subtraction: intimal area equals the […], and medial area equals EEL area minus IEL area.
Statistical analysis was conducted using the two tailed t-Test (two-sample assuming unequal variances) for comparisons between groups of PDT-treated and control fistulae and paired t-tests for paired comparisons of PDT-treated and control fistulae.
End-to-side AV fistulae between the carotid artery and internal jugular vein were treated at four different BPD-MA doses (0.015, 0.15, 0.5 & 1.5 mg/2 mL) and exposed to 40 minutes of operating room (OR) lamp and ambient light to determine the optimal doses required to inhibit IH while causing minimal damage to the vein wall. Bilateral AV fistulae were created. For example, one side was treated with saline and 40 min. OR lamp light, while the other side was treated with BPD-MA (0.015 mg/2 mL or the other doses) and 40 min. OR lamp light after creating the anastomoses. At least six pigs were treated using each BPD-MA dose and the 40 minutes OR lamp light delivery system.
Optimization of PS and radiation dose was performed. Bilateral end-to-side AV fistula between the carotid artery and jugular vein were created in 29 pigs. Animals were sacrificed 4 weeks after PDT, and the fistulae were surgically excised and processed for histology. Computer-assisted measurement of the lumen area and,the area delimited by the internal elastic lamina (IEL) and external elastic lamina (EEL) was performed on 5 sections of the vein. The IH was calculated by subtracting the lumen area from the […]. Medial hyperplasia was calculated by subtracting the IEL area from the EEL area.
For each fistula, the percent of the lumen compromised by the intima hyperplasia (%LCIH=IEL−Lumen/IEL) was calculated for the first two complete blocks from the tip of the anastomosis, since IH is most often observed clinically within 1 cm of the anastomosis. Differences in the % LCIH between control and treated sides were averaged for each dose group. Results are presented in Tables 1 a and 1b as well as illustrated in FIGS. 2 and 3.

[1] = 0.015 mg BPD-MA/2 mL into vein lumen, one month, individual pigs
[2] = 0.015 mg BPD-MA/2 mL, one month, group mean
[3] = 0.015 mg BPD-MA/2 mL, one month, individual pigs
[4] = 0.15 mg BPD-MA, OR lamp, one month, group mean
[5] = 0.15 mg BPD-MA, OR lamp, one month, individual pigs
[6] = 0.15 mg BPD-MA/2 mL into vein lumen, one month, individual pigs
[7] = 0.15 mg BPD-MA/2 mL, one month, group mean
[8] = 0.15 mg BPD-MA/2 mL, one month, individual pigs
[9] = 0.15 mg BPD-MA, one month, relative to control mean
[10] = 0.15 mg BPD-MA, one month, treated vs control fistulae
[11] = 0.5 mg BPD-MA/2 mL into vein lumen, one month, individual pigs
[12] = 0.5 mg BPD-MA/2 mL, one month, group mean
[13] = 0.5 mg BPD-MA/2 mL, one month, individual pigs
[14] = 1.5 mg BPD-MA/2 mL into vein lumen, one month, individual pigs
[15] = 1.5 mg BPD-MA/2 mL, one month, group mean
[16] = 1.5 mg BPD-MA/2 mL, one month, individual pigs

Substance: benzoporphyrin derivative monoacid ring A [BPD-MA]
- Percent Lumen Compromised by Intimal Hyperplasia, PDT, Block #1 [1]: 3.1% and 21.3% and 9% and 30.3% and 3.4% and 2.2%
- Percent Lumen Compromised by Intimal Hyperplasia, PDT, Block #2 [1]: 2.4% and 2.3% and 5% and 13% and 8.6% and 1.8%
- Percent Lumen Compromised by Intimal Hyperplasia, Control-PDT, Block #1, Mean [2]: 1.5%
- Percent Lumen Compromised by Intimal Hyperplasia, Control-PDT, Block #2, Mean [2]: 2.9%
- Percent Lumen Compromised by Intimal Hyperplasia, PDT, Block #2, Mean (0.015 mg BPD-MA/2 mL, one month, group mean, p = 0.36 vs control): 5.5%
- Percent Lumen Compromised by Intimal Hyperplasia, PDT, Block #1, Mean (0.015 mg BPD-MA/2 mL, one month, group mean, p = 0.39 vs control): 11.6%
- PDT-treated fistula thrombosed (T) [3]: T
- Percent Lumen Compromised by Intimal Hyperplasia, Control-PDT, Block #1 [3]: −0.2% and 10.2% and −4% and −27.2% and 24.9% and 5.3%
- Percent Lumen Compromised by Intimal Hyperplasia, Control-PDT, Block #2 [3]: −0.2% and 27.1% and −2% and −6.5% and −1.9% and 0.9%
- Change in amount of IH between control and treated veins (0.015 mg BPD-MA, one month): little change
- Percent Medial Hyperplasia, PDT, Block #1, Mean [4]: 10.0%
- Percent Medial Hyperplasia, PDT, Block #2, Mean [4]: 11.5%
- PDT-treated fistula thrombosed [5]: T
- Percent Medial Hyperplasia, PDT, Block #1 [5]: 5.9% and 15.3% and 6.2% and 12.5% and 9.8%
- Percent Medial Hyperplasia, PDT, Block #2 [5]: 10.3% and 5.7% and 18.2% and 9.8% and 13.7%
- Percent Lumen Compromised by Intimal Hyperplasia, PDT, Block #1 [6]: 7.1% and 19.3% and 4.6% and 9.2% and 6.9% and 21.1%
- Percent Lumen Compromised by Intimal Hyperplasia, PDT, Block #2 [6]: 7% and 9.1% and 6.7% and 2.5% and 3.6% and 8.6%
- Percent Lumen Compromised by Intimal Hyperplasia, Control-PDT, Block #1, Mean [7]: 7.0%
- Percent Lumen Compromised by Intimal Hyperplasia, Control-PDT, Block #2, Mean [7]: 9.25%
- Percent Lumen Compromised by Intimal Hyperplasia, PDT, Block #2, Mean (0.15 mg BPD-MA/2 mL, one month, group mean, p = 0.06 vs control): 6.3%
- Percent Lumen Compromised by Intimal Hyperplasia, PDT, Block #1, Mean (0.15 mg BPD-MA/2 mL, one month, group mean, p = 0.095 vs control): 11.4%
- PDT-treated fistula thrombosed (T) [8]: T
- Percent Lumen Compromised by Intimal Hyperplasia, Control-PDT, Block #1 [8]: 24.2% and −1.5% and 8.2% and −2.9%
- Percent Lumen Compromised by Intimal Hyperplasia, Control-PDT, Block #2 [8]: 2.7% and 14.8% and 0.5% and 19%
- Relative reduction of intimal hyperplasia (mean PDT-induced decrease), first block [9]: 38%
- Relative reduction of intimal hyperplasia (mean PDT-induced decrease), second block [9]: 55%
- Reduction in % LCIH, first block [10]: 7.0%
- Reduction in % LCIH, second block [10]: 9.3%
- Difference in medial thickness between PDT-treated and control samples, block 2 (0.15 mg/2 mL, one month): little difference
- Difference in medial thickness between PDT-treated and control samples, first block (0.15 mg/2 mL, one month): 44%
- Percent Lumen Compromised by Intimal Hyperplasia, PDT, Block #1 [11]: 18.1% and 16.6% and 32.0%
- Percent Lumen Compromised by Intimal Hyperplasia, PDT, Block #2 [11]: 11.2% and 6.8% and 3.4%
- Percent Lumen Compromised by Intimal Hyperplasia, Control-PDT, Block #1, Mean [12]: 0.5%
- Percent Lumen Compromised by Intimal Hyperplasia, Control-PDT, Block #2, Mean [12]: 0.9%
- Percent Lumen Compromised by Intimal Hyperplasia, PDT, Block #1, Mean [12]: 22.2%
- Percent Lumen Compromised by Intimal Hyperplasia, PDT, Block #2, Mean [12]: 7.1%
- PDT-treated fistula thrombosed (T) [13]: T
- Percent Lumen Compromised by Intimal Hyperplasia, Control-PDT, Block #1 [13]: −13.0% and 5.1% and 9.4%
- Percent Lumen Compromised by Intimal Hyperplasia, Control-PDT, Block #2 [13]: −8.3% and 2.1% and 9.0%
- Difference in IH between treated and control fistulae (0.5 mg BPD-MA, one month): Little difference
- Percent Lumen Compromised by Intimal Hyperplasia, PDT, Block #1 [14]: 19.4% and 17.4% and 21.6% and 41.8% and 12.7%
- Percent Lumen Compromised by Intimal Hyperplasia, PDT, Block #2 [14]: 43.0% and 1.7% and 11.7% and 53.8% and 13.9%
- Percent Lumen Compromised by Intimal Hyperplasia, Control-PDT, Block #1, Mean [15]: −14.9%
- Percent Lumen Compromised by Intimal Hyperplasia, Control-PDT, Block #2, Mean [15]: −23.6%
- Percent Lumen Compromised by Intimal Hyperplasia, PDT, Block #1, Mean [15]: 22.6%
- Percent Lumen Compromised by Intimal Hyperplasia, PDT, Block #2, Mean [15]: 24.8%
- PDT-treated fistula thrombosed (T) [16]: T
- Percent Lumen Compromised by Intimal Hyperplasia, Control-PDT, Block #1 [16]: −0.7% and −13.7% and −38.9% and −6.2%
- Percent Lumen Compromised by Intimal Hyperplasia, Control-PDT, Block #2 [16]: −37.9% and 5.1% and −49.9% and −11.8%
- Effect on IH (1.5 mg dose BPD-MA, one month): appeared to induce IH
- Effect on development of IH, high doses (PDT with high doses of BPD-MA): either did not modulate the development of IH or actually induced IH
- Thrombogenicity of vessel wall, high doses (PDT with high doses of BPD-MA, one month): appeared to render the vessel wall more thrombogenic
- Percent IH in PDT-treated vs control fistulae, responders only (all animals 0.015 to 1.5 mg/2 ml BPD-MA, excluding those with less than 10% IH in control fistulae, Block 1 p=0.03, Block 2 p=0.02): significantly less
- Average one-month thrombosis incidence, PDT-treated fistulae (all doses (0.015-1.5 mg/2 mL BPD-MA), control fistulae 26.0%): 26.6%
- Effect on IH at the anastomosis of arteriovenous grafts, low doses (low doses (0.15 mg/2 ml) locally delivered BPD-MA, ambient light from operating room lamps): resulted in the reduction of IH
- Incidence of thrombosis, low-dose PDT (low-dose PDT, one month): not associated with an increase in the incidence of thrombosis
- Effect of PDT on medial thickening (one month): did not affect medial thickening
- Number of fistulae that thrombosed vs drug dose (one month, 0.015-1.5 mg/2 mL): correlated roughly with increasing drug dose
- Statistical significance of differences in intimal thickening between PDT-treated and control veins (one month, marked with some doses (0.15 mg)): not statistically significant
